# According to patent US6372717B1, “Synthetic peptides and their use in cosmetic or dermopharmaceutical compositions” (Sederma S.A., priority 1999, dated 2002):
# Tested on: human skin
# Assay: activity by topical application
# Assay type: in vivo
# Text: The object of the present invention is the discovery that this peptide, and above all the lipophile derivatives of the peptide, have a calming, antalgic activity when applied to the human skin in a suitable cosmetic or dermopharmaceutical preparation.
structure (smiles),measurement,value
N=C(N)NCCC[C@H](NC(=O)[C@@H](N)Cc1ccc(O)cc1)C(=O)O [H-L-Tyr-L-Arg-OH],activity by topical application,only a slight activity
